Source: US10859504B2, “Degradable cationic surfactants and use thereof in enhancing chemiluminescence” (Siemens Healthcare Diagnostics Inc., priority 2013, dated 2020)

Key:
[1] = Chemiluminescence measurement of anti-TSH antibody conjugate of acridinium ester 3c with cationic surfactants; conditions: for Observed enhancement (fold) of chemiluminescence: no surfactant control = 1; for Observed acceleration of emission kinetics (time to >90% emission): without surfactant 62.5 seconds
Experimental: (§1) To study the impact of degradable cationic surfactants on acridinium ester chemiluminescence, two exemplary cationic surfactants containing cleavable linkages (FIG. 2A) were selected. The synthetic schemes for the two surfactants are illustrated in FIGS. 3-4 and described in Examples 1 and 2 above. Both surfactants were dissolved in Reagent 1 (0.1 M nitric acid containing 0.5% hydrogen peroxide) at five times their reported CMCs in water. CTAC dissolved in Reagent 2 (0.25 M NaOH) was used as the control surfactant. The two carbonate and amide cationic surfactants (FIG. 2A) were dissolved in Reagent 1 to preserve stability, especially during long term storage (Stjerndahl and Holmberg, J. Colloid and Interface Sci., 2005, 291, 570-576). Three acridinium esters (FIG. 2B, compounds 3a, 3b and 3c) were used to make protein conjugates of an anti-TSH antibody (TS=thyroid stimulating hormone) as described in the literature (Natrajan et al, Org. Biomol. Chem., 2011, 9, 5092-5103; Natrajan et al, Org. Biomol. Chem., 2012, 10, 3432-3447). The conjugates contained approximately 5 labels. The conjugates were stored at 4° C. in buffer and chemiluminescence from each conjugate was measured in the absence of surfactant and in the presence of CTAC as well as cationic surfactants 1 and 2 (Tables 1-3, FIGS. 5-7). The ability of each surfactant to (a) increase total light output and (b) accelerate emission kinetics was evaluated over a period of 80 days.
(§2) Chemiluminescence of anti-TSH antibody conjugates of acridinium esters 3a, 3b and 3c (FIG. 2B) was measured on an Autolumat LB953 Plus luininometer from Behold Technologies. The conjugates, ˜2 mg/mL containing approximately five labels, were serially diluted 10^5-fold for chemiluminescence measurements in an aqueous buffer of 10 mM disodium hydrogen phosphate, 0.15 M NaCl and 8 mM sodium azide and 0.015 mM bovine serum albumin (BSA), pH 8.0. A 0.010 mL volume of each diluted acridinium ester sample was dispensed into the bottom of a cuvette. Cuvettes were placed into the primed LB953 and the chemiluminescence reaction was initiated with the sequential addition of 0.3 mL of Reagent 1, a solution of 0.5% hydrogen peroxide in 0.1 M nitric acid followed by the addition of 0.3 mL of Reagent 2, a solution of 0.25 M sodium hydroxide. For measurements in the presence of CTAC, the surfactant (7 mM) was included in Reagent 2. For measurements in the presence of the cationic amide surfactant 1 or the cationic carbonate surfactant 2, each surfactant was dissolved in Reagent 1 at 3.2 mM (surfactant 1) and 2.15 mM (surfactant 2). Each chemiluminescence flash curve was measured in 240 intervals of 0.5 second (120 seconds total time). Each chemiluminescence reaction was carried out a minimum of three times, averaged and converted to a percentage of the chemiluminescence accumulated up to each time interval. The output from the luminometer instrument was expressed as R.L.U.s (Relative Light Units).

[2] = Chemiluminescence measurement of anti-TSH antibody conjugate of acridinium ester 3a with cationic surfactants; conditions: for Observed enhancement (fold) of chemiluminescence: no surfactant control = 1; for Observed acceleration of emission kinetics (time to >90% emission): without surfactant 57.5 seconds; for accelerated emission kinetics: as shown in Table 1b, from 57.5 seconds without surfactant
Experimental: as §1, §2

[3] = cited from earlier work
[4] = Chemiluminescence measurement of anti-TSH antibody conjugate of acridinium ester 3b with cationic surfactants; conditions: for Observed enhancement (fold) of chemiluminescence: no surfactant control = 1; for Observed acceleration of emission kinetics (time to >90% emission): without surfactant 49.5 seconds
Experimental: as §1, §2

[5] = Stability of surfactants in Reagent 1 (0.5% peroxide in 0.1 M nitric acid) on storage; assay type: physicochemical; conditions: for stability in Reagent 1: 0.5% peroxide in 0.1 M nitric acid, 80 days at room temperature, little loss in ability to enhance chemiluminescence; for ability to accelerate light emission after storage: 80 days of storage at room temperature
Experimental: as §1
For example, for all three acridinium ester conjugates, in comparison to the no surfactant control which was assigned a relative light yield of one, total light yield was increased approximately 2.5-4-fold for 3a, 3-5-fold for 3b and 3-4.5-fold for 3c (Tables 1a, 2a and 3a) for CTAC as well as surfactants 1 and 2. […] Even at day 80, the fold of increased light emission using surfactant 2 remains to be about 80% (2.8/3.5) of CTAC. Similarly, the fold of increased light emission using Surfactant 1 is about 89% (3.1/3.5) on day 1, and 74% (2.6/3.5) on day 80 compared to CTAC.
Furthermore, both surfactants 1 and 2 were very effective in accelerating light emission from the acridinium ester antibody conjugates (Tables 1b, 2b and 3b, FIGS. 5-7). […] In the presence of CTAC or the two cationic surfactants 1 and 2, emission times were compressed to <3 seconds for the conjugates of all three acridinium ester labels.

Compound	Observed enhancement (fold) of chemiluminescence ([1]; Day 1) [fold]	Observed acceleration of emission kinetics (time to >90% emission) ([1]; Day 1) [s]	Observed enhancement (fold) of chemiluminescence ([1]; Day 10) [fold]	Observed acceleration of emission kinetics (time to >90% emission) ([1]; Day 10) [s]	Observed enhancement (fold) of chemiluminescence ([1]; Day 20) [fold]	Observed acceleration of emission kinetics (time to >90% emission) ([1]; Day 20) [s]	Observed enhancement (fold) of chemiluminescence ([1]; Day 40) [fold]	Observed acceleration of emission kinetics (time to >90% emission) ([1]; Day 40) [s]	Observed enhancement (fold) of chemiluminescence ([1]; Day 80) [fold]	Observed acceleration of emission kinetics (time to >90% emission) ([1]; Day 80) [s]	Observed enhancement (fold) of chemiluminescence ([2]; Day 1) [fold]	Observed acceleration of emission kinetics (time to >90% emission) ([2]; Day 1) [s]	Observed enhancement (fold) of chemiluminescence ([2]; Day 10) [fold]	Observed acceleration of emission kinetics (time to >90% emission) ([2]; Day 10) [s]	Observed enhancement (fold) of chemiluminescence ([2]; Day 20) [fold]	Observed acceleration of emission kinetics (time to >90% emission) ([2]; Day 20) [s]	Observed enhancement (fold) of chemiluminescence ([2]; Day 40) [fold]	Observed acceleration of emission kinetics (time to >90% emission) ([2]; Day 40) [s]	Observed enhancement (fold) of chemiluminescence ([2]; Day 80) [fold]	Observed acceleration of emission kinetics (time to >90% emission) ([2]; Day 80) [s]	further results
CCCCCCCCCCCCCCCC[N+](C)(C)C.[Cl-] [CTAC, cetyltrimethylammonium chloride, reference compound]	4.1	2.0	4.3	2.0	4.6	2.5	3.9	2.5	4.0	2.5	3.5	1.5	3.6	1.5	4.0	1.5	3.4	1.5	3.5	1.5	accelerated emission kinetics [2]: 1.5 s; increase of overall light output ([3]; acridinium ester labels and their conjugates): 3-4 fold; emission time of the labels ([3]; compressed from approximately 60 s, 7 mM CTAC in 0.25 M sodium hydroxide): < 5 s; Observed enhancement (fold) of chemiluminescence ([4]; Day 1): 5.3 fold; Observed acceleration of emission kinetics (time to >90% emission) ([4]; Day 1): 1.0 s; Observed enhancement (fold) of chemiluminescence ([4]; Day 10): 5.2 fold; Observed acceleration of emission kinetics (time to >90% emission) ([4]; Day 10): 1.0 s; Observed enhancement (fold) of chemiluminescence ([4]; Day 20): 5.5 fold; Observed acceleration of emission kinetics (time to >90% emission) ([4]; Day 20): 1.0 s; Observed enhancement (fold) of chemiluminescence ([4]; Day 40): 4.2 fold; Observed acceleration of emission kinetics (time to >90% emission) ([4]; Day 40): 1.0 s; Observed enhancement (fold) of chemiluminescence ([4]; Day 80): 4.6 fold; Observed acceleration of emission kinetics (time to >90% emission) ([4]; Day 80): 1.0 s
CCCCCCCCCCCCCCCC(=O)NCC[N+](C)(C)C [surfactant 1]	3.8	2.0	3.8	2.0	4.1	2.0	3.2	2.0	3.0	2.0	3.1	1.0	3.1	1.0	3.4	1.0	2.6	1.0	2.6	1.0	stability in Reagent 1 [5]: quite stable; ability to accelerate light emission after storage [5]: did not diminish; accelerated emission kinetics [2]: 1.0 s; fold of increased light emission compared to CTAC ([2]; day 1): about 89%; fold of increased light emission compared to CTAC ([2]; day 80): ~74%; Observed enhancement (fold) of chemiluminescence ([4]; Day 1): 4.5 fold; Observed acceleration of emission kinetics (time to >90% emission) ([4]; Day 1): 1.0 s; Observed enhancement (fold) of chemiluminescence ([4]; Day 10): 4.4 fold; Observed acceleration of emission kinetics (time to >90% emission) ([4]; Day 10): 0.5 s; Observed enhancement (fold) of chemiluminescence ([4]; Day 20): 4.7 fold; Observed acceleration of emission kinetics (time to >90% emission) ([4]; Day 20): 0.5 s; Observed enhancement (fold) of chemiluminescence ([4]; Day 40): 3.4 fold; Observed acceleration of emission kinetics (time to >90% emission) ([4]; Day 40): 0.5 s; Observed enhancement (fold) of chemiluminescence ([4]; Day 80): 3.4 fold; Observed acceleration of emission kinetics (time to >90% emission) ([4]; Day 80): 0.5 s
CCCCCCCCCCCCOC(=O)OCCCC[N+](C)(C)C [surfactant 2]	4.2	1.0	4.2	1.0	4.4	1.5	3.7	1.5	3.5	1.5	3.5	1.0	3.6	1.0	3.7	1.0	3.2	1.0	2.8	1.0	stability in Reagent 1 [5]: quite stable; ability to accelerate light emission after storage [5]: did not diminish; accelerated emission kinetics [2]: 1.0 s; fold of increased light emission compared to CTAC ([2]; day 80): about 80%; effectiveness in enhancing chemiluminescence relative to CTAC ([2]; within at least the first 10 days (Table 1a)): as effective as CTAC; Observed enhancement (fold) of chemiluminescence ([4]; Day 1): 5.0 fold; Observed acceleration of emission kinetics (time to >90% emission) ([4]; Day 1): 0.5 s; Observed enhancement (fold) of chemiluminescence ([4]; Day 10): 5.2 fold; Observed acceleration of emission kinetics (time to >90% emission) ([4]; Day 10): 0.5 s; Observed enhancement (fold) of chemiluminescence ([4]; Day 20): 5.2 fold; Observed acceleration of emission kinetics (time to >90% emission) ([4]; Day 20): 0.5 s; Observed enhancement (fold) of chemiluminescence ([4]; Day 40): 3.9 fold; Observed acceleration of emission kinetics (time to >90% emission) ([4]; Day 40): 0.5 s; Observed enhancement (fold) of chemiluminescence ([4]; Day 80): 4.1 fold; Observed acceleration of emission kinetics (time to >90% emission) ([4]; Day 80): 0.5 s
